According to patent publication US20100221763A1, “Specific Acceptors for Transferases to Saccharides and Method for Obtaining and Using Same” (Health Research, Inc, priority 2005, published 2010):

How the values were obtained:
[1] = molecular target: L-Selectin (Homo sapiens, UniProt P14151); settings: compared to NeuAcα2,3Galβ1,4(Fucα1,3)GlcNAcβ-O-Me (sialyl Lewis-x); cited from earlier work
[2] = molecular target: P-Selectin (Homo sapiens, UniProt P16109); settings: compared to NeuAcα2,3Galβ1,4(Fucα1,3)GlcNAcβ-O-Me (sialyl Lewis-x); cited from earlier work
[3] = system: β-GlcNAc:β1,4GalNAc-T of colon tumor CC9338; experiment: β-GlcNAc:β1,4GalNAc-T assay, colon tumor extract; format: biochemical, human; settings: for b) β-GlcNAc:β1,4GalNAc-T activity: incorporation of radioactive sugar: other acceptors, 1 mg protein of the tissue extract
Protocol: (§1) Colon tumor tissue (CC9338) and breast tumor tissue (BC9400) were obtained during surgical procedures at Roswell Park Cancer Institute and stored frozen within 1 h at −70° C. The tissues were homogenized at 4° C. with 4 volumes of 0.1M Tris Maleate […] 0.1% NaN3 using kinematica. After adjusting the concentration of Triton X-100 to 2%, these homogenates were mixed in the cold room for 1 h using Speci-Mix (Thermolyne) and then centrifuged at 20,000 g for 1 h at 4° C. The clear fat-free supernatant was stored frozen at −20° C. until use. Aliquots of 10 μL from this extract were used in assays run in duplicates. Glycosyltransferase activity in cell lysate was determined by mixing the lysates with acceptor and radiolabeled donor (monosaccharide) under the reaction conditions detailed below, followed by separation of un-reacted donor from the radioactive product using anionic or hydrophobic chromatography. In all cases, the radioactive content of isolated products was determined by using 3a70 scintillation cocktail (Research Products International, Mount Prospect, Ill.) and a Beckman LS6500 scintillation counter. Controls for each assay contained the reaction mixture with everything except the acceptor. All assays were run in duplicate.
(§2) The acceptors used for measuring the glycosyltransferase and sulfotransferase activities are given in Table I. The following are the conditions for individual enzymatic assays. Reaction temperature in all cases was 37° C. α2,3- and α2,6 sialytransferase (ST) assay reactions proceeded for 2 h in a mixture containing 100 mM sodium cacodylate buffer (pH 6.0), 7.5 mM acceptor, CMP-[9-^3H]NeuAc (typically 0.2 μCi) and 10 μl cell extract in a total volume of 20 μl [Chandrasekaran et al., 1995]. βGlcNAc:β1,4Gal-T and αGalNAc:β1,3Gal-T assay mixtures in duplicate contained 0.1M Hepes-NaOH pH 7.0, 7 mM ATP, 20 mM Mn acetate, 1 mM UDP-Gal, UDP [^14C]Gal (0.05 μCi; 327mCi/mmol; Amersham), 0.5 mM acceptor (unless otherwise stated) and the enzyme in a total volume of 20 μL. It was incubated for 4 h [Chandrasekaran et al., 2001]. βGlcNAc:β1,4GalNAc-T assay mixtures in duplicate contained 0.1M Hepes-NaOH pH 7.0, 7 mM ATP, 20 mM Mn acetate. UDP [^3H] GalNAc (0.20 μCi; 7.8 Ci/mmol: New England Nuclear Corp.) 7.5 mM acceptor (unless otherwise stated) and the enzyme in a total volume of 20 μL and incubated for 4 h [Chandrasekaran et al., 2001].
(§3) Dowex-1-C1 or Sep-Pak C18 cartridges were used to isolate radiolabeled product from the reaction mixture. For GalT, GalNAc-T and FT assays, the incubation mixture was diluted with 1 ml water and passed through a 1 ml Dowex-1-C1 column [Chandrasekaran et al., 1996; Chandrasekaran et al., 2001]. The column was washed twice with 1 ml of water. The breakthrough and the water wash contained the [^14C]-galactosylated or [^14C]-fucosylated products formed with neutral acceptors. 3 ml of 0.1M NaCl was used to obtain [^14C]-fucosylated products from sialylated acceptors after water elution. For sialytransferase assays, the radioactive products from benzylglycosides were separated by hydrophobic chromatography on Sep-Pak C18 cartridge (Waters, Milford, Mass.), and elution of the product was done with 3 ml methanol [Palcic et al., 1988]. For sulfotransferase assays, elution of the [^35S]-sulfated compound from Dowex-1-C1 column was achieved by 3 ml of 0.2M NaCl [Chandrasekaran et al., 2004].

[4] = system: β-GlcNAc:β1,4Gal-T of breast tumor BC9400; experiment: β-GlcNAc:β1,4Gal-T assay, breast tumor extract; format: biochemical, human; settings: for a) β-GlcNAc:β1,4Gal-T activity: incorporation of radioactive sugar: other acceptors, 1 mg protein of the tissue extract
Protocol: as §1, §2, §3

[5] = system: β-GlcNAc:β1,4GalNAc-T of breast tumor BC9400; experiment: β-GlcNAc:β1,4GalNAc-T assay, breast tumor extract; format: biochemical, human; settings: for b) β-GlcNAc:β1,4GalNAc-T activity: incorporation of radioactive sugar: other acceptors, 1 mg protein of the tissue extract
Protocol: as §1, §2, §3

[6] = system: β-GlcNAc:β1,4Gal-T of colon tumor CC9338; experiment: β-GlcNAc:β1,4Gal-T assay, colon tumor extract; format: biochemical, human; settings: for a) β-GlcNAc:β1,4Gal-T activity: incorporation of radioactive sugar: other acceptors, 1 mg protein of the tissue extract
Protocol: as §1, §2, §3

[7] = system: Siglec 4 (MAG); settings: Blixt et al. (49); cited from earlier work
[8] = molecular target: T1, human FTVII (Homo sapiens, UniProt Q11130); experiment: [14C]Fuc transfer by FTVII from extracts of transfected COS-7 cells; format: biochemical; settings: extracts of COS-7 cells transfected with FTVII cDNA; unpublished results
T1 construct: expressed in transfected cells; host or cells: COS-7
Source text: The sialylation steps in this reaction scheme were validated by analyzing reaction products using mass spectroscopy (Table VI).

[9] = relative to Gal-T activity with the same acceptor
[10] = Gal-T activity with the same acceptor = 100.0%

L-Selectin, sequence (P14151 39-372, species assumed): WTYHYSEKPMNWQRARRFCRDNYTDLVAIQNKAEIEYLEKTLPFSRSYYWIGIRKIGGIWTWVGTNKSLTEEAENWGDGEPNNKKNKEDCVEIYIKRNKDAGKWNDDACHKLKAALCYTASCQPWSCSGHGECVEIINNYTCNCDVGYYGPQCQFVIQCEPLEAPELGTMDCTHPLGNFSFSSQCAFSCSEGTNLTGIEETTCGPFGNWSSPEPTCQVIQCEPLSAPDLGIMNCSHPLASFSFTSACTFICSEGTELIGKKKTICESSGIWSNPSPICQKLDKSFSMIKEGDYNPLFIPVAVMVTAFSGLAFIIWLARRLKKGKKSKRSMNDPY
P-Selectin, sequence (P16109 42-830, species assumed): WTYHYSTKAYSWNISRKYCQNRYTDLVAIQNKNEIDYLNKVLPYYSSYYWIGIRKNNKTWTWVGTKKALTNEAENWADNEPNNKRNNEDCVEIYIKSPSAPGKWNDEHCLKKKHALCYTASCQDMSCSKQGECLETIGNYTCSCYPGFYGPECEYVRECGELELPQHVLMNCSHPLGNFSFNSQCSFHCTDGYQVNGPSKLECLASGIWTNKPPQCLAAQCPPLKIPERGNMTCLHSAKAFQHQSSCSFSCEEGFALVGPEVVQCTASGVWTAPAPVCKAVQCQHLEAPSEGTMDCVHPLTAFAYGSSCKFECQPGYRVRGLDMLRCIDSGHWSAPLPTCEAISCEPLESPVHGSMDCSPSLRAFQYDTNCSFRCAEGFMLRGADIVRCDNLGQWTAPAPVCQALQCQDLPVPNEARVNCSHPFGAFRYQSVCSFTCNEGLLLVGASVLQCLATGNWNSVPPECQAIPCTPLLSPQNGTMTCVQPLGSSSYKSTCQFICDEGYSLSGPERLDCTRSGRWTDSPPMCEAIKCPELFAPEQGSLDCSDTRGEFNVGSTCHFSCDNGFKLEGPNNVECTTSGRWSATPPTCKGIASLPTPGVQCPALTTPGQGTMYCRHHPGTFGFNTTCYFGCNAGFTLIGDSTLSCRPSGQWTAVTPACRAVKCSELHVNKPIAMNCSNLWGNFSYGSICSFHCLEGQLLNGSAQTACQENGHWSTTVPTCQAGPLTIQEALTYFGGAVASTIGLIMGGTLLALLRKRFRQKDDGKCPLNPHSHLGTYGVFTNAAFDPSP
T1 sequence (Q11130 whole entry): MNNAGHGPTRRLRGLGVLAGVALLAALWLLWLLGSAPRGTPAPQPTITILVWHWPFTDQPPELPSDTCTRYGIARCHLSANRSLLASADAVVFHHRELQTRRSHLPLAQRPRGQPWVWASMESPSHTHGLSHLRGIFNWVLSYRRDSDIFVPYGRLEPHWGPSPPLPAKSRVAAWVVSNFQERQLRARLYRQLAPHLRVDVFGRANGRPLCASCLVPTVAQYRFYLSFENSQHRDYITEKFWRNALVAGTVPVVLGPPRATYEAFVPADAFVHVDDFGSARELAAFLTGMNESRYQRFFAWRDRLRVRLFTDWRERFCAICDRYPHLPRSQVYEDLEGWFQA

In the case of COC1OC(COC2OC(CO)C(OC3OC(CO)C(O)C(O)C3NC(C)=O)C(OC3OC(C)C(O)C(O)C3O)C2NC(C)=O)C(O)C(OC2OC(CO)C(O)C(OC3(C(=O)O)CC(O)C(NC(C)=O)C(C(O)C(O)CO)O3)C2O)C1NC(C)=O (stereo not shown) [GalNAcβ1,4(Fucα1,3)GlcNAcβ1,6(NeuAcα2,3Galβ1,3) GalNAcα-O-Me], the “fold better inhibitor of L-Selectin binding” value [1] is listed as 5-6 fold and the “fold better inhibitor of P-Selectin binding” value [2] is listed as 5-6 fold.

With C=CCO[C@H]1O[C@H](CO[C@@H]2O[C@H](CO)[C@@H](O)[C@H](O)[C@H]2NC(C)=O)[C@@H](O)[C@H](O)[C@@H]1O [GlcNAcβ1,6Manα-O—Al] the “b) β-GlcNAc:β1,4GalNAc-T activity: incorporation of radioactive sugar” value [3] was 54.5 CPM × 10^−3, the “b) β-GlcNAc:β1,4GalNAc-T activity, percent in parentheses” value [3, 9] was 11.0% and the “a) β-GlcNAc:β1,4Gal-T activity, percent in parentheses” value [4, 10] was 100.0%. For the same compound, the “a) β-GlcNAc:β1,4Gal-T activity: incorporation of radioactive sugar” value [4] was 443.6 CPM × 10^−3, the “b) β-GlcNAc:β1,4GalNAc-T activity: incorporation of radioactive sugar” value [5] was 99.2 CPM × 10^−3 and the “b) β-GlcNAc:β1,4GalNAc-T activity, percent in parentheses” value [5, 9] was 22.4%. The “a) β-GlcNAc:β1,4Gal-T activity, percent in parentheses” value [6, 10] was 100.0% and the “a) β-GlcNAc:β1,4Gal-T activity: incorporation of radioactive sugar” value [6] was 493.4 CPM × 10^−3.

In the case of CC(=O)NC1C(O)CC(OCC2OC(OC(C)C(N)C(=O)O)C(NC(C)=O)C(OC3OC(CO)C(O)C(OC4(C(=O)O)CC(O)C(NC(C)=O)C(C(O)C(O)CO)O4)C3O)C2O)(C(=O)O)OC1C(O)C(O)CO (stereo not shown) [NeuAcα2,3Galβ1,3(NeuAcα2,6)GalNAcα-O-Thr, NeuAcα2,3Galβ1,3 (NeuAcα2,6)GalNAcα-O-Thr], the “fold more potent than NeuAcα2,6GalNAcα-O-Thr in inhibiting Siglec 4 (MAG) binding” value [7] is given as 3,000 fold.

In the case of CO[C@@H]1O[C@H](CO)[C@H](O)[C@H](O[C@@H]2O[C@H](CO)[C@@H](O)[C@H](O)[C@H]2NC(C)=O)[C@H]1O [GlcNAcβ1,3Galβ-O-Me], the “b) β-GlcNAc:β1,4GalNAc-T activity: incorporation of radioactive sugar” value [3] is reported as 20.9 CPM × 10^−3, the “a) β-GlcNAc:β1,4Gal-T activity: incorporation of radioactive sugar” value [4] is reported as 338.5 CPM × 10^−3 and the “b) β-GlcNAc:β1,4GalNAc-T activity: incorporation of radioactive sugar” value [5] is reported as 60.9 CPM × 10^−3. For the same compound, the “a) β-GlcNAc:β1,4Gal-T activity: incorporation of radioactive sugar” value [6] was 247.9 CPM × 10^−3.

In the case of CO[C@@H]1O[C@H](COS(=O)(=O)O)[C@@H](O[C@@H]2O[C@H](CO)[C@H](O)[C@H](O[C@@H]3O[C@H](COS(=O)(=O)O)[C@@H](O[C@@H]4O[C@H](CO)[C@H](O)[C@H](O[C@]5(C(=O)O)C[C@H](O)[C@@H](NC(C)=O)[C@H]([C@H](O)[C@H](O)CO)O5)[C@H]4O)[C@H](O)[C@H]3NC(C)=O)[C@H]2O)[C@H](O)[C@H]1NC(C)=O [NeuAcα2,3Galβ1,4(6-O-Sulfo)GlcNAcβ1,3Galβ1,4(6-O-Sulfo)GlcNAcβ-O-Me], the “transfer of [14C]Fuc to the acceptor” value [8] is reported as “efficiently transferring”.
